Literature values, collected in patent US11224631B2, “Ready-to-use Carfilzomib compositions” (Orbicular Pharmaceutical Technologies Pvt. Ltd., priority 2017, dated 2022).

- Aqueous solubility: low aqueous solubility
SMILES: CC(C)C[C@H](NC(=O)[C@H](CCc1ccccc1)NC(=O)CN1CCOCC1)C(=O)N[C@@H](Cc1ccccc1)C(=O)N[C@@H](CC(C)C)C(=O)[C@@]1(C)CO1 [Carfilzomib]
